Type in all cases: cell-based
Experiment [1] has as its target T1, Toll-like receptor 9 (Homo sapiens) (UniProt Q9NR96).
T1 sequence (whole entry): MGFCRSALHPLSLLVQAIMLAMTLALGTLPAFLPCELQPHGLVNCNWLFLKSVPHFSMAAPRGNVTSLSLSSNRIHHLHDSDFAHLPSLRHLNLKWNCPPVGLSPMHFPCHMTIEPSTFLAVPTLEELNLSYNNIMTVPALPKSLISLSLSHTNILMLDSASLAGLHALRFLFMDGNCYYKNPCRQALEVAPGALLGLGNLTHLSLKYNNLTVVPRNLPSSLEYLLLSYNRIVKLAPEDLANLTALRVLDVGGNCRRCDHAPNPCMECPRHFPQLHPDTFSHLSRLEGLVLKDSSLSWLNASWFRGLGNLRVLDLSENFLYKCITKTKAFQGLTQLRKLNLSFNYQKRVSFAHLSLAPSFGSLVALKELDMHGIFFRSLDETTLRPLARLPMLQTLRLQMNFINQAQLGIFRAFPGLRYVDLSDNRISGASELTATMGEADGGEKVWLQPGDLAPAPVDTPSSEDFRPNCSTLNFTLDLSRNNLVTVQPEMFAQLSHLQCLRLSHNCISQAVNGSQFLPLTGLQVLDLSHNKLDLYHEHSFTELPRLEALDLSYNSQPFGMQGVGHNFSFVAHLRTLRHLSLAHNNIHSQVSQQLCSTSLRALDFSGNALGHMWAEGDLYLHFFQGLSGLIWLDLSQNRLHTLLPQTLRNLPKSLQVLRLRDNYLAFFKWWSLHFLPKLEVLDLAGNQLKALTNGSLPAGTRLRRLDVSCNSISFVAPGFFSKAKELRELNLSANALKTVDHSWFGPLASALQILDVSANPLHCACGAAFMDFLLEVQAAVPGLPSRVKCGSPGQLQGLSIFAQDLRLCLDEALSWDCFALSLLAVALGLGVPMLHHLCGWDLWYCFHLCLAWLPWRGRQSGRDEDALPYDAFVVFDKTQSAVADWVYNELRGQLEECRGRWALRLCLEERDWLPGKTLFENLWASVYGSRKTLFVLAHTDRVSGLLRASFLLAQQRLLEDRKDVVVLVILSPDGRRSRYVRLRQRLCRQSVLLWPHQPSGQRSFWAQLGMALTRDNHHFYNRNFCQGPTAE
The experiment is described as follows: Modulation of human TLR9 expressed in HEK293 cells co-transfected with MD2 and sAP assessed as induction of NF-kappaB activity by reporter gene assay. For orientation: In a reporter assay the amount or activity of a reporter protein is the signal.

Experiment [2] concerns the target Toll-like receptor 3 (Homo sapiens) (UniProt O15455). Kind of experiment: Modulation of human TLR3 expressed in HEK293 cells co-transfected with MD2 and sAP assessed as induction of NF-kappaB activity by reporter gene assay.
Experiment [3] has as its target T2, Toll-like receptor 8 (Homo sapiens) (UniProt Q9NR97).
T2 sequence (whole entry): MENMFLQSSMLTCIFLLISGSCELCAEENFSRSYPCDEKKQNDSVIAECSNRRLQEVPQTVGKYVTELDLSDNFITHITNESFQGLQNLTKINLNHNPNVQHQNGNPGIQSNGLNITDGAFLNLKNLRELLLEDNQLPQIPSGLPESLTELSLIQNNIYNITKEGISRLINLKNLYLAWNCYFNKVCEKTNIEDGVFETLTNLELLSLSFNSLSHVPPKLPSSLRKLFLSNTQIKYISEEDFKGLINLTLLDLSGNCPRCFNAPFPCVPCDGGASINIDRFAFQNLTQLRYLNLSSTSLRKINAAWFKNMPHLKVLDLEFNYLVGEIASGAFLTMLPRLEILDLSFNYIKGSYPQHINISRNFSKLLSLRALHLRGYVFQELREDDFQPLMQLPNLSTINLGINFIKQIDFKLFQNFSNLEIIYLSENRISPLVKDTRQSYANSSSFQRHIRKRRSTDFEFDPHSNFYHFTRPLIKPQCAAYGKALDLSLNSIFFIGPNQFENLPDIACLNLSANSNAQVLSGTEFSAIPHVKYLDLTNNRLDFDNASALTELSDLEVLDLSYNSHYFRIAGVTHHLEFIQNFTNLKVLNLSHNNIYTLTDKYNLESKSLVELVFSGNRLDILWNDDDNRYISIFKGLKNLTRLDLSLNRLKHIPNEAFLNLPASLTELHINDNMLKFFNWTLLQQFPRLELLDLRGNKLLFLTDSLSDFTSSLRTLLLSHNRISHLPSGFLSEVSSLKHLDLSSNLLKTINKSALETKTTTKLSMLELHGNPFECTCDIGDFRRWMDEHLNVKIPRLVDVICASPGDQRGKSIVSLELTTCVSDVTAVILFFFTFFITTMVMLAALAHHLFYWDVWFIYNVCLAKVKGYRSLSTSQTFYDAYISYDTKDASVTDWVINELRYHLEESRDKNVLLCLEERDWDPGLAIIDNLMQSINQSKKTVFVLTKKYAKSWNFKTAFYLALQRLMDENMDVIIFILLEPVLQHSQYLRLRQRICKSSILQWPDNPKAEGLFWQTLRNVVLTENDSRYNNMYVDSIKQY
Kind of experiment: Modulation of human TLR8 expressed in HEK293 cells co-transfected with MD2 and sAP assessed as induction of NF-kappaB activity by reporter gene assay.

Activity calls are given as the source filed them. The calls are words filed in the database; no cut-off is given here.

Chain of Toll-like receptor 3 (Homo sapiens) (O15455 whole entry): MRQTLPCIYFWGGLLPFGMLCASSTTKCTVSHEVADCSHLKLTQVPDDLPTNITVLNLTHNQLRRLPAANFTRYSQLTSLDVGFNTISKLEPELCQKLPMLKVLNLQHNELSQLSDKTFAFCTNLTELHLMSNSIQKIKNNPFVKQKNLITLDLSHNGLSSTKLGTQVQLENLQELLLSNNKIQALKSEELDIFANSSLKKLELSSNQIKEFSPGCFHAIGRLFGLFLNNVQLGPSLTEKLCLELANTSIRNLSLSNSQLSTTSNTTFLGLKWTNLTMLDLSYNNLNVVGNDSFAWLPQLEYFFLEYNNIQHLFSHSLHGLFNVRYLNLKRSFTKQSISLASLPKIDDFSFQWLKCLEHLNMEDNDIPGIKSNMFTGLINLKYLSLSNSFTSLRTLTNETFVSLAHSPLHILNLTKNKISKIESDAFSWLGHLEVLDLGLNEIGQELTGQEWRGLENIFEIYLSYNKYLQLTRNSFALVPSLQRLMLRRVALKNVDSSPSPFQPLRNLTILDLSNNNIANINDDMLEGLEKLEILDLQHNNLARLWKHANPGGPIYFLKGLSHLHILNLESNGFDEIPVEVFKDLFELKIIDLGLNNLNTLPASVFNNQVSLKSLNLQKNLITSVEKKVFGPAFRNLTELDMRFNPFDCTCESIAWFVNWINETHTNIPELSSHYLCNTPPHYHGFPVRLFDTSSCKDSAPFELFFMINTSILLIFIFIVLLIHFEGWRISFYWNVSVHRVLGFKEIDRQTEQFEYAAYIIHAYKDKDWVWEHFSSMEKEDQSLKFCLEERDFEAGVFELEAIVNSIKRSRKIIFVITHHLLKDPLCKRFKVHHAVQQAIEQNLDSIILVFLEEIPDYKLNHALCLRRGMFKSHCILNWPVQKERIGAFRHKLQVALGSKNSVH

In the case of `NCCc1cc2c(o1)c(N)nc1ccccc12`, the result in experiment [1], in experiment [2] and in experiment [3] was Active.

On to `CCCCc1cc2c(nc(N)c3ccccc32)o1`, for which the outcome in experiment [1], in experiment [2] and in experiment [3] was inactive.

The values above are taken from ChEMBL document CHEMBL2417394, “Exquisite selectivity for human toll-like receptor 8 in substituted furo[2,3-c]quinolines” (J Med Chem, 2013).
